The record followed here is US7183276B2, “Azole compounds” (Takeda Pharmaceutical Company Limited, priority 2002, dated 2007).

Test system in one data set: not given
Test: not given
Conditions: not given
For the compound `CN1CCC(N(C)C(=O)CCc2oc(-n3cnc4ccccc43)nc2-c2ccc(Cl)cc2)CC1` [Example 193, 3-[2-(1H-benzimidazol-1-yl)-4-(4-chlorophenyl)-5-oxazolyl]-N-methyl-N-(1-methyl-4-piperidinyl)propionamide], the melting point (commonly the temperature, or range, at which the solid turns liquid) is 133 to 134 °C.

Regarding `O=C(CCc1oc(-n2cnc3ccccc32)nc1-c1ccc(Cl)cc1)N1CCS(=O)(=O)CC1` [Example 194, 4-{3-[2-(1H-benzimidazol-1-yl)-4-(4-chlorophenyl)-5-oxazolyl]propanoyl}thiomorpholine-1,1-dioxide], the melting point lay within 227 to 228 °C. Turning to `O=C(CCCc1oc(-n2cnc3ccccc32)nc1-c1ccc(Cl)cc1)NCc1cc(Br)ccc1F` [Example 195, 4-[2-(1H-benzimidazol-1-yl)-4-(4-chlorophenyl)-5-oxazolyl]-N-(5-bromo-2-fluorobenzyl)butanamide], the melting point fell in the range of 196 to 198 °C. The same measure, in the same setting: next, `Cc1ccc(CNC(=O)CCCc2oc(-n3cnc4ccccc43)nc2-c2ccc(Cl)cc2)cc1` [Example 196, 4-[2-(1H-benzimidazol-1-yl)-4-(4-chlorophenyl)-5-oxazolyl]-N-(4-methylbenzyl)butanamide]: 190 to 191 °C; `O=C(CCc1sc(-n2cnc3ccccc32)nc1-c1ccc(Cl)cc1)NCc1cc(Br)ccc1F` [Example 202, 3-[2-(1H-benzimidazol-1-yl)-4-(4-chlorophenyl)-5-thiazolyl]-N-(5-bromo-2-fluorobenzyl)propionamide]: 188 to 189 °C. `Cc1ccc(CNC(=O)CCc2sc(-n3cnc4ccccc43)nc2-c2ccc(Cl)cc2)cc1` [Example 203, 3-[2-(1H-benzimidazol-1-yl)-4-(4-chlorophenyl)-5-thiazolyl]-N-(4-methylbenzyl)propionamide] displayed a melting point of 191 to 192 °C. Regarding `O=C(CCCc1sc(-n2cnc3ccccc32)nc1-c1ccc(Cl)cc1)NCc1cc(Br)ccc1F` [Example 216, 4-[2-(1H-benzimidazol-1-yl)-4-(4-chlorophenyl)-5-thiazolyl]-N-(5-bromo-2-fluorobenzyl)butanamide], the melting point was in the range of 160 to 161 °C. Turning to `Cc1ccc(CNC(=O)CCCc2sc(-n3cnc4ccccc43)nc2-c2ccc(Cl)cc2)cc1` [Example 217, 4-[2-(1H-benzimidazol-1-yl)-4-(4-chlorophenyl)-5-thiazolyl]-N-(4-methylbenzyl)butanamide], the melting point lay within 138 to 139 °C.

As to `N#CCc1ccc(NC(=O)Cc2sc(-n3cnc4ccccc43)nc2-c2ccc(Cl)cc2)cc1` [Example 219, 2-[2-(1H-benzimidazol-1-yl)-4-(4-chlorophenyl)-5-thiazolyl]-N-[4-(cyanomethyl)phenyl]acetamide], the melting point lay in the range of 245 to 246 °C. `N#CCc1ccc(NC(=O)CCCCc2sc(-n3cnc4ccccc43)nc2-c2ccc(Cl)cc2)cc1` [Example 223, 5-[2-(1H-benzimidazol-1-yl)-4-(4-chlorophenyl)-5-thiazolyl]-N-[4-(cyanomethyl)phenyl]pentanamide] yielded a melting point of 187 to 188 °C.

`Nc1nc(-c2ccc(Cl)cc2)c(CCC(=O)N2CCS(=O)(=O)CC2)s1` [Example 227B, 4-{3-[2-amino-4-(4-chlorophenyl)-5-thiazolyl]propanoyl}thiomorpholine-1,1-dioxide] displayed a melting point of 220 to 222 °C. `Cc1nc(-c2ccc(Cl)cc2)c(CCC(=O)N2CCS(=O)(=O)CC2)o1` [Example 241, 4-{3-[4-(4-chlorophenyl)-2-methyl-5-oxazolyl]propanoyl}thiomorpholine-1,1-dioxide]: the melting point lay in the range of 124 to 125 °C. Compound `O=C(CCc1oc(-n2cnc3ccccc32)nc1-c1ccccc1)N1CCC(O)CC1` [Example 247, 1-{3-[2-(1H-benzoimidazol-1-yl)-4-phenyl-5-oxazolyl]propanoyl}-4-piperidinol] returned a melting point of 157 to 158 °C. In turn, `COc1ccc(-c2nc(-n3cnc4ccccc43)oc2CCC(=O)N2CCC(O)CC2)cc1` [Example 248, 1-(3-[2-(1H-benzoimidazol-1-yl)-4-(4-methoxyphenyl)-5-oxazolyl]propanoyl)-4-piperidinol] displayed a melting point of 161 to 162 °C.

Take `COc1ccc(-c2nc(-n3cnc4ccccc43)oc2CCC(=O)N2CCN(CC3CCCN(C)C3)CC2)cc1` (centres unmarked) [Example 252, 1-{3-[2-(1H-benzoimidazol-1-yl)-4-(4-methoxyphenyl)-5-oxazolyl]propanoyl}-4-[(1-methylpiperidin-3-yl)methyl]piperazine]: the melting point lay within 151 to 152 °C. Compound `O=C(CCc1oc(-n2cnc3ccccc32)nc1-c1cccc(Cl)c1)N1CCC(O)CC1` [Example 257, 1-{3-[2-(1H-benzoimidazol-1-yl)-4-(3-chlorophenyl)-5-oxazolyl]propanoyl}-4-piperidinol] displayed a melting point of 97 to 98 °C. `O=C(CCc1oc(-n2cnc3ccccc32)nc1-c1ccc(F)cc1)N1CCC(O)CC1` [Example 258, 1-{3-[2-(1H-benzoimidazol-1-yl)-4-(4-fluorophenyl)-5-oxazolyl]propanoyl}-4-piperidinol]: the melting point lay within 158 to 159 °C. In turn, `O=C(CCc1oc(-n2cnc3ccccc32)nc1-c1ccc(Cl)cc1)N1CCSC1` [Example 259, 3-{3-[2-(1H-benzoimidazol-1-yl)-4-(4-chlorophenyl)-5-oxazolyl]propanoyl}thiazolidine] gave a melting point of 125 to 126 °C. `O=C(CCc1oc(-n2cnc3ccccc32)nc1-c1ccc(Cl)cc1)N1CCCC(O)C1` (centres unmarked) [Example 300, 1-{3-[2-(1H-benzoimidazol-1-yl)-4-(4-chlorophenyl)-5-oxazolyl]propanoyl}-3-piperidinol] registered a melting point of 104 to 105 °C. Turning to `CCS(=O)(=O)CCNC(=O)CCc1oc(-n2cnc3ccccc32)nc1-c1ccc(Cl)cc1` [Example 301, 3-[2-(1H-benzoimidazol-1-yl)-4-(4-chlorophenyl)-5-oxazolyl]-N-[2-(ethylsulfonyl)ethyl]propanamide], the melting point lay in the range of 182 to 183 °C. The compound `CS(=O)(=O)CCNC(=O)CCc1oc(-n2cnc3ccccc32)nc1-c1ccc(Cl)cc1` [Example 302, 3-[2-(1H-benzoimidazol-1-yl)-4-(4-chlorophenyl)-5-oxazolyl]-N-[2-(methylsulfonyl)ethyl]propanamide] displayed a melting point of 194 to 195 °C. In turn, `CN(CCS(C)(=O)=O)C(=O)CCc1oc(-n2cnc3ccccc32)nc1-c1ccc(Cl)cc1` [Example 303, 3-[2-(1H-benzoimidazol-1-yl)-4-(4-chlorophenyl)-5-oxazolyl]-N-[2-(methylsulfonyl)ethyl]-N-methylpropanamide] had a melting point of 141 to 142 °C. `O=C(CCc1oc(-n2cnc3ccccc32)nc1-c1ccc(Cl)cc1)NC1CCC(O)CC1` (centres unmarked) [Example 304, 3-[2-(1H-benzoimidazol-1-yl)-4-(4-chlorophenyl)-5-oxazolyl]-N-(4-hydroxycyclohexyl)propanamide] registered a melting point of 204 to 206 °C.

In turn, `O=C(CCc1oc(-n2cnc3ccccc32)nc1-c1ccc(Cl)cc1)N1CCC(CO)CC1` [Example 305, (1-{3-[2-(1H-benzoimidazol-1-yl)-4-(4-chlorophenyl)-5-oxazolyl]propanoyl}-4-piperidinyl)methanol] showed a melting point of 101 to 102 °C. For `CS(=O)(=O)C1CCN(C(=O)CCc2oc(-n3cnc4ccccc43)nc2-c2ccc(Cl)cc2)CC1` [Example 307, 1-{3-[2-(1H-benzoimidazol-1-yl)-4-(4-chlorophenyl)-5-oxazolyl]propanoyl}-4-(methylsulfonyl)piperidine], the melting point is 215 to 216 °C.

`O=C(CCc1oc(-n2cnc3ccccc32)nc1-c1ccc(Cl)cc1)N1CCS(=O)(=O)C1` [Example 344, 3-{3-[2-(1H-benzoimidazol-1-yl)-4-(4-chlorophenyl)-5-oxazolyl]propanoyl}thiazolidine-1,1-dioxide] had a melting point of 136 to 137 °C. Compound `Cc1cc(C)n(-c2nc(-c3ccc(Cl)cc3)c(CCC(=O)N3CCN(CC4CCN(C)CC4)CC3)o2)n1` [Example 347, 1-{3-[4-(4-chlorophenyl)-2-(3,5-dimethyl-1H-pyrazol-1-yl)-5-oxazolyl]propanoyl}-4-[(1-methyl-4-piperidinyl)methyl]piperazine] had a melting point of 126 to 127 °C.

The next data set concerns diabetic neuropathy model (streptozotocin-injected rats). The experiment in a line: Motor nerve conduction velocity in STZ diabetic neuropathy model rats. It counts as in vivo. To be noted: male SD rats, STZ 70 mg/kg diabetic neuropathy model; 3 mg/kg orally in 0.5% methyl cellulose; average value ± SD (n = 7–8). The method, then:
(§1) To 6-week-old male SD rats (CLEA Japan, Inc.) was injected 70 mg/kg body weight of streptozotocin (STZ) from the tail vein to form a diabetic neuropathy model.
(§2) After raising for one month, 3 mg/kg of compound (compound of Example 5 or Example 226) suspended in 0.5% methyl cellulose was orally administered to the rats. For the control group, a 0.5% aqueous methyl cellulose suspension free of the aforementioned compound was administered.
After the completion of the administration, the rats were anesthetized with Nembutal, the body temperature was maintained at a constant level using a hot plate at 37° C. and a desk lamp, needle electrodes were placed on the above-knee region and ankle, stimulated using Neuropack 2 (NIHON KOHDEN CORPORATION) principally at 1.6 mA and the evoked potential was detected from the plantar part. The Motor Nerve Conduction Velocity (MNCV) was calculated from the distance between different electrodes and latency difference of waveforms.
Take `CCOP(=O)(Cc1ccc(NC(=O)CCCc2oc(-n3cnc4ccccc43)nc2-c2ccc(Cl)cc2)cc1)OCC` [Example 226, 4-[2-(1H-benzimidazol-1-yl)-4-(4-chlorophenyl)-5-oxazolyl]-N-[(4-diethylphosphonomethyl)phenyl]butanamide]: the “MNCV (Motor Nerve Conduction Velocity)” value is listed as 52.3 ± 2.4 m/s.

For a further data set, the system named is BDNF. The data set is described as follows: BDNF content of ischiadic nerve of STZ diabetic neuropathy model rats (sandwich ELISA). It counts as in vivo. The settings on record: male SD rats, STZ 70 mg/kg diabetic neuropathy model, 3 mg/kg orally in 0.5% methyl cellulose, ischiadic nerve supernatant, average value ± SD (n = 7–8). The method, then:
as §1, §2
After the evaluation of the nerve conduction velocity, the ischiadic nerve was taken from the rat, a lysis buffer (0.1M Tris-HCl buffer containing 1M sodium chloride, 2% BSA, 2 mM EDTA, 80 trypsin unit/L of aprotinin, pH 7.6) in a 20-fold amount of the wet weight of ischiadic nerve was added and the mixture was subjected to ultrasonication and centrifugal separation (15,000 rpm, 60 min.), and the BDNF content of the supernatant was measured.
The BDNF content was measured by sandwich ELISA Method using anti-BDNF polyclonal antibody (Promega) and biotinated anti-BDNF antibody (G1641, Promega). The results are shown in [Table 20].
A general note: In an ELISA, binding on a coated surface is turned into a signal by an enzyme label.
With `CCOP(=O)(Cc1ccc(NC(=O)CCCc2oc(-n3cnc4ccccc43)nc2-c2ccc(Cl)cc2)cc1)OCC` [Example 226, 4-[2-(1H-benzimidazol-1-yl)-4-(4-chlorophenyl)-5-oxazolyl]-N-[(4-diethylphosphonomethyl)phenyl]butanamide], the “BDNF (content of ischiadic nerve)” value turned out to be 3.6 ± 0.4 ng/g.
